Where a name gives a salt, the structure may show the parent alone.
Tests used:
NaV1.6 [1] = target: T1, NaV1.6 (Homo sapiens (Human), UniProt Q9UQD0); test: Sodium Influx Assay (Flux), NaV1.6; settings: read-out: Flux NaV1.6 IC50; Trex HEK293 cells, ANG2 dye; arithmetic mean
NaV1.1 [2] = target: T2, NaV1.1 (Homo sapiens (Human), UniProt P35498); test: Electrophysiological Assay (EP), patch voltage clamp, NaV1.1; assay type: cell-based; settings: HEK-293 cells, whole-cell patch clamp, inactivated state; arithmetic mean
Procedure: (§1) Sodium currents were measured using the patch clamp technique in the whole-cell configuration using either a PatchXpress automated voltage clamp or manually using an Axopatch 200B (Axon Instruments) or Model 2400 (A-M systems) amplifier.
In some studies, the external sodium was reduced by equimolar replacement with choline. […] All recordings were performed at ambient temperature in a bath chamber with a volume of 150 μL. Control sodium currents were measured in 0.5% DMSO. Controls and representative compounds of the invention were applied to the recording chamber through a 4-pinch or 8-pinch valve bath perfusion system manufactured by ALA Scientific Instruments.
Series resistance compensation was applied (60-80%). […] All statistics in this study are given as mean±SD.
The membrane potential was maintained at a voltage where inactivation of the channel is complete. The voltage is then stepped back to a very negative (Vhold=−150 mV) voltage for 20 ms and then a test pulse is applied to quantify the compound block. […] The percent decrease in sodium current following wash-on of compound was taken as the percent block of sodium channels.

NaV1.1 [3] = target: T2, NaV1.1; test: Sodium Influx Assay (Flux), NaV1.1; assay type: cell-based; settings: Trex HEK293 cells, ANG2 dye; arithmetic mean
NaV1.5 = NaV1.5 (Homo sapiens (Human), UniProt Q14524); test: Sodium Influx Assay (Flux), NaV1.5; settings: read-out: Flux NaV1.5 IC50; Trex HEK293 cells, ANG2 dye; arithmetic mean
NaV1.6 [4] = target: T1, NaV1.6; test: Electrophysiological Assay (EP), patch voltage clamp, NaV1.6; assay type: cell-based; settings: HEK-293 cells, whole-cell patch clamp, inactivated state; arithmetic mean
Source text: Patch voltage clamp electrophysiology allows for the direct measurement and quantification of block of voltage-gated sodium channels (Nay's), and allows the determination of the time-and voltage-dependence of block which has been interpreted as differential binding to the resting, open, and inactivated states of the sodium channel (Hille, B., Journal of General Physiology (1977), 69: 497-515).
NaV1.1, NaV1.5 and NaV1.6 cDNAs (NM_001165964 (SCN1A), NM_000335 (SCN5A) and NM_014191 (SCN8A), respectively) were stably expressed in HEK-293 cells.
as §1
The manual voltage clamp protocol was as follows: Borosilicate glass micropipettes were fire-polished to a tip diameter yielding a resistance of 2-4 Mohms in the working solutions. […] In some studies, the external sodium was reduced by equimolar replacement with choline. Osmolarity in the CsF internal and NaCl external solutions was adjusted to 300 mOsm/kg and 310 mOsm/kg with glucose, respectively. All recordings were performed at ambient temperature in a bath chamber with a volume of 150 μL. Control sodium currents were measured in 0.5% DMSO. Controls and representative compounds of the invention were applied to the recording chamber through a 4-pinch or 8-pinch valve bath perfusion system manufactured by ALA Scientific Instruments.
Currents were recorded at 40 kHz sampling frequency, filtered at […], and stored using a Digidata-1322A analogue/digital interface with the pClamp software (Axon Instruments). Series resistance compensation was applied (60-80%). […] All statistics in this study are given as mean±SD.
The membrane potential was maintained at a voltage where inactivation of the channel is complete. The voltage is then stepped back to a very negative (Vhold=−150 mV) voltage for 20 ms and then a test pulse is applied to quantify the compound block. The 20 ms brief repolarization was long enough for compound-free channels to completely recover from fast inactivation, but the compound-bound channels recovered more slowly such that negligible recovery could occur during this interval. The percent decrease in sodium current following wash-on of compound was taken as the percent block of sodium channels.

T1 sequence (Q9UQD0 whole entry): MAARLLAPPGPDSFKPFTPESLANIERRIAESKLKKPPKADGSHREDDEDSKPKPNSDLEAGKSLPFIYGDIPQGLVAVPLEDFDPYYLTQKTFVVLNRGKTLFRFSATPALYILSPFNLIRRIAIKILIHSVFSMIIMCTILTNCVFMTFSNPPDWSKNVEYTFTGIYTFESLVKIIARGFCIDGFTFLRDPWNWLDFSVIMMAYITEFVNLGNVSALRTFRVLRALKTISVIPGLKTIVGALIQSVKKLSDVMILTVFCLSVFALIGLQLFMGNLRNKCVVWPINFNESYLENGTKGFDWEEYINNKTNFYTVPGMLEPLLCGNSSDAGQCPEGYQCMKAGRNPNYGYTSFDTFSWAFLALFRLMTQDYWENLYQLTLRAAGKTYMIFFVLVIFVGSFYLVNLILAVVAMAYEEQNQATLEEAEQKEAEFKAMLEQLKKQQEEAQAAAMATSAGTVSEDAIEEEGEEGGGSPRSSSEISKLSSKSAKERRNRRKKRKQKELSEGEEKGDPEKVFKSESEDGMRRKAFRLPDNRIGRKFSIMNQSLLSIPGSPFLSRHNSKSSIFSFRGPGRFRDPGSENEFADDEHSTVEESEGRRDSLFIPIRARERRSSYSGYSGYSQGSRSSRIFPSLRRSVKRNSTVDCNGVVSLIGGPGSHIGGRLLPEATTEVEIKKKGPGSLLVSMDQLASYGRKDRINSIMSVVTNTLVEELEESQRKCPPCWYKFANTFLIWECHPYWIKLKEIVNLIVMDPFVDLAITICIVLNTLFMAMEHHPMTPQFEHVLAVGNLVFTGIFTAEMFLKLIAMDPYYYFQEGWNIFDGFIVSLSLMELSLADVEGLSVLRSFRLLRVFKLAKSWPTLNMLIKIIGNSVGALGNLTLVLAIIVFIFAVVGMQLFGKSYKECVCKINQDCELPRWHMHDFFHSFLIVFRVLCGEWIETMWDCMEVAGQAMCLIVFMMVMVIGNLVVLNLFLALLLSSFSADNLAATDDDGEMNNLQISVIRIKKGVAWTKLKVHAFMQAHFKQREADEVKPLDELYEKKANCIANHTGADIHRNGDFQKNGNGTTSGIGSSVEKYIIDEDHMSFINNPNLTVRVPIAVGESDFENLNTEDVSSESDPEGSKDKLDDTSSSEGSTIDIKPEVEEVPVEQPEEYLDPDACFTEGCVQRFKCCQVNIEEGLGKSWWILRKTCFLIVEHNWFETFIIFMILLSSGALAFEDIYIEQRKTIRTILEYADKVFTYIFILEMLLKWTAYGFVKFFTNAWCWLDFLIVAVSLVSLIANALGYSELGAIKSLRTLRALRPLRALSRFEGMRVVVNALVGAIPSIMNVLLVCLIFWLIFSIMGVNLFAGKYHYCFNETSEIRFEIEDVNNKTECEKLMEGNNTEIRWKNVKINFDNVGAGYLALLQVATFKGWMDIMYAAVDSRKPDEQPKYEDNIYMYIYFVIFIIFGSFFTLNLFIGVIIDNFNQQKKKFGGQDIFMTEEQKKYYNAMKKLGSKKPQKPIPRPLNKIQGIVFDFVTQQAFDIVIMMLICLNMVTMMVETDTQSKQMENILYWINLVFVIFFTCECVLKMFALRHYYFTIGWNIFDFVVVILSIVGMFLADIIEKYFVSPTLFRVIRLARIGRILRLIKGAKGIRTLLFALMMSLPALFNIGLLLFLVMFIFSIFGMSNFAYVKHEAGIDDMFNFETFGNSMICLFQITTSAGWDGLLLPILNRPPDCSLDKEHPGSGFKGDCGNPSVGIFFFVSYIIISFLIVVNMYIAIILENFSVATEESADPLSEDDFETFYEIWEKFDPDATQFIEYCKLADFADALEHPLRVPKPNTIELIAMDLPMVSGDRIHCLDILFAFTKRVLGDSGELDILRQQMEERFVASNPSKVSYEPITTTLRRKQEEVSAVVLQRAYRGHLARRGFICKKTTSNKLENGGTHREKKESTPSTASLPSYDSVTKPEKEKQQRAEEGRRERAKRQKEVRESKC
Chain of NaV1.5 (Q14524 other isoform, or with tags, fused parts or gaps): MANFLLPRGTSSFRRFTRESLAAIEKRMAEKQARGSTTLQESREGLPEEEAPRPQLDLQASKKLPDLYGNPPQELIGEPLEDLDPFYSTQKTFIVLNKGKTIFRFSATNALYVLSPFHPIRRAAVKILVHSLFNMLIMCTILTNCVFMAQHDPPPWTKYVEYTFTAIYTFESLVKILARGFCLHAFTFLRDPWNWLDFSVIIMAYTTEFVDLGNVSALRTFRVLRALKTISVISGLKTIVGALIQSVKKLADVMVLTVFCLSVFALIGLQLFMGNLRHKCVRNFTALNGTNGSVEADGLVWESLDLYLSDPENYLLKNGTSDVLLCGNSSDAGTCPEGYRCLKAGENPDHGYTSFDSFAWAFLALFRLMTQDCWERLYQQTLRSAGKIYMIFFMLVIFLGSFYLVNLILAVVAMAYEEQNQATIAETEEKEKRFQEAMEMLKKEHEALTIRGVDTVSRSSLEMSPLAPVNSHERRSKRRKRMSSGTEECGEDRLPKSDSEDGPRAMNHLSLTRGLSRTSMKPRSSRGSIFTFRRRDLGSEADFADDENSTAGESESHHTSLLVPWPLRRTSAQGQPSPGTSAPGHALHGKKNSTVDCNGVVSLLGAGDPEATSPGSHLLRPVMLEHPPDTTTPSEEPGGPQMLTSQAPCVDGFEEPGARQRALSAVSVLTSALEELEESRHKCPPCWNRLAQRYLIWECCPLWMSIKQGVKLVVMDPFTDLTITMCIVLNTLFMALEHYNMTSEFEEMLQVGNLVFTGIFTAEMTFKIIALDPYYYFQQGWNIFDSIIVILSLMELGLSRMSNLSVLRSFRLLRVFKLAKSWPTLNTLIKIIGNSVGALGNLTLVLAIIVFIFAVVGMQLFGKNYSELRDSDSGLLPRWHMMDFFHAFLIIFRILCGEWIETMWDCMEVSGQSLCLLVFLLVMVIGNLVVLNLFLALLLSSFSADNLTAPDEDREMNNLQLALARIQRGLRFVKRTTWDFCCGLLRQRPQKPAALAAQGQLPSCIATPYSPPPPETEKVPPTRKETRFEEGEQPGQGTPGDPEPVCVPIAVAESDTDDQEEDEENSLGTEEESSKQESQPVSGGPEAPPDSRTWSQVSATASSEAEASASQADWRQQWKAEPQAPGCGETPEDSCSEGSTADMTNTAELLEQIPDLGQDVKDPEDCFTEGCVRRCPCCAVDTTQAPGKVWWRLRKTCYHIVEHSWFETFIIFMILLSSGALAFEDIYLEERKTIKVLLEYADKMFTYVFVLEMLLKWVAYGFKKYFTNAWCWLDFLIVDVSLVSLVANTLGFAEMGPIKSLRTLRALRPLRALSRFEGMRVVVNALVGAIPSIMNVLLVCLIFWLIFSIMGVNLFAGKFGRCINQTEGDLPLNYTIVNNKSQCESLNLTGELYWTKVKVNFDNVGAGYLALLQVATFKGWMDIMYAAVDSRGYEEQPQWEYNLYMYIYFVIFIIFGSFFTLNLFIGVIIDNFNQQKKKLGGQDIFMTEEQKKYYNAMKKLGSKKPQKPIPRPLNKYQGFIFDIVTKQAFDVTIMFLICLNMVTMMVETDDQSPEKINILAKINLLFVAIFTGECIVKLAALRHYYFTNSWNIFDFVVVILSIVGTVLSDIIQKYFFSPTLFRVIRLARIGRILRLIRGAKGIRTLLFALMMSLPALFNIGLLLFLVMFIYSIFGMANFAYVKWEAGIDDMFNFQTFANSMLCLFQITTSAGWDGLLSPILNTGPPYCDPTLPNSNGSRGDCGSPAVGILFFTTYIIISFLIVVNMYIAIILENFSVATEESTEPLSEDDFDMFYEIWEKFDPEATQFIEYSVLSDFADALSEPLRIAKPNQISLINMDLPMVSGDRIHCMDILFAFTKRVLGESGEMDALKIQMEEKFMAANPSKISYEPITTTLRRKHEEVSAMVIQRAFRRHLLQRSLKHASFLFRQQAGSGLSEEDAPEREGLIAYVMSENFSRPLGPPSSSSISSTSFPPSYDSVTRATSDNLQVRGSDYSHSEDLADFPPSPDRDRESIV

Row | Compound | IC50 (NaV1.6 [1]) [µM] | IC50 (NaV1.1 [2]) [µM] | IC50 (NaV1.1 [3]) [µM] | IC50 (NaV1.5) [µM] | IC50 (NaV1.6 [4]) [µM]
1 | C[C@H]1CN(Cc2ccccc2)C[C@@H]1Nc1ccc(S(=O)(=O)Nc2nccs2)cc1Cl (relative stereo) [Example 74, 4-((trans-1-benzyl-4-methylpyrrolidin-3-yl)amino)-3-chloro-N-(thiazol-2-yl)benzenesulfonamide] | 0.167 | 1.03 | 1.54 | 8.67 | 0.025
2 | O=S(=O)(Nc1nccs1)c1ccc(OC2CCN(Cc3cccc(C(F)F)c3)CC2)c(Cl)c1 [Example 11, 3-chloro-4-((1-(3-(difluoromethyl)benzyl)piperidin-4-yl)oxy)-N-(thiazol-2-yl)benzenesulfonamide] | 0.253 | 7.21 | 8.12 | 7.58 | 0.082
3 | O=S(=O)(Nc1nccs1)c1ccc(O[C@@H]2C[C@H]3CC[C@@H](C2)N3Cc2ccccc2)c(Cl)c1 [Example 16, 4-(((1R,3s,5S)-8-benzyl-8-azabicyclo[3.2.1]octan-3-yl)oxy)-3-chloro-N-(thiazol-2-yl)benzenesulfonamide] | 0.429 | > 10 | 22.8 | > 30 | 0.03
4 | CC1(Nc2ccc(S(=O)(=O)Nc3nccs3)cc2Cl)CN(Cc2ccccc2)C1 [Example 25, 4-((1-benzyl-3-methylazetidin-3-yl)amino)-3-chloro-N-(thiazol-2-yl)benzenesulfonamide 2,2,2-trifluoroacetate] | 0.569 | > 10 | 5.76 | 24.7 | 0.138
5 | CN(c1ccc(S(=O)(=O)Nc2nccs2)cc1Cl)[C@H]1CCN(Cc2cccc(Cl)c2)C1 [Example 27, (S)-3-chloro-4-((1-(3-chlorobenzyl)pyrrolidin-3-yl)(methyl)amino)-N-(thiazol-2-yl)benzenesulfonamide] | 0.437 | 3.41 | 3.73 | 6.9 | 0.07
6 | CN(c1ccc(S(=O)(=O)Nc2nccs2)cc1Cl)[C@H]1CCN(Cc2cccc(C(F)F)c2)C1 [Example 28, (S)-3-chloro-4-((1-(3-(difluoromethyl)benzyl)pyrrolidin-3-yl)(methyl)amino)-N-(thiazol-2-yl)benzenesulfonamide] | 0.221 | 4.21 | 3.23 | 5.73 | 0.036
7 | CN(c1ccc(S(=O)(=O)Nc2ncns2)cc1Cl)[C@H]1CCN(Cc2cc(Cl)ccc2F)C1 [Example 33, (S)-3-chloro-4-((1-(5-chloro-2-fluorobenzyl)pyrrolidin-3-yl)(methyl)amino)-N-(1,2,4-thiadiazol-5-yl)benzenesulfonamide 2,2,2-trifluoroacetate] | 0.041 | > 10 | 5.11 | 7.79 | 0.07
8 | CCN(c1ccc(S(=O)(=O)Nc2ncns2)cc1Cl)[C@H]1CCN(Cc2ccccc2)C1 [Example 36, (S)-4-((1-benzylpyrrolidin-3-yl)(ethyl)amino)-3-chloro-N-(1,2,4-thiadiazol-5-yl)benzenesulfonamide] | 0.615 | > 10 | > 30 | > 30 | 0.685
9 | CN(c1cc(F)c(S(=O)(=O)Nc2cccc(F)n2)cc1Cl)[C@H]1CCN(Cc2ccccc2)C1 [Example 40, (S)-4-((1-benzylpyrrolidin-3-yl)(methyl)amino)-5-chloro-2-fluoro-N-(6-fluoropyridin-2-yl)benzenesulfonamide bis(trifluoroacetic acid) salt] | 3.25 | > 10 | 6.79 | 15.8 | 3.88
10 | O=S(=O)(Nc1ncns1)c1ccc(N[C@H]2CCN(Cc3ccccc3)C2)c(Cl)c1 [Example 67, (S)-4-((1-benzylpyrrolidin-3-yl)amino)-3-chloro-N-(1,2,4-thiadiazol-5-yl)benzenesulfonamide 2,2,2-trifluoroacetate] | 0.31 | – | > 30 | > 30 | 0.453
11 | O=S(=O)(Nc1cccc(F)n1)c1ccc(OC2CCN(Cc3ccccc3)CC2)c(Cl)c1 [Example 77, 4-((1-benzylpiperidin-4-yl)oxy)-3-chloro-N-(6-fluoropyridin-2-yl)benzenesulfonamide 2,2,2-trifluoroacetate] | 7.61 | – | 19 | 26.6 | 5.57
12 | O=S(=O)(Nc1ncns1)c1ccc(O[C@H]2CCN(Cc3ccccc3)C2)c(Cl)c1 [Example 97, (S)-4-(1-benzylpyrrolidin-3-yloxy)-3-chloro-N-(1,2,4-thiadiazol-5-yl)benzenesulfonamide 2,2,2-trifluoroacetate] | 1.45 | – | > 30 | > 30 | 2.94
13 | Cc1cc(C)cc(CN2CC[C@H](Oc3ccc(S(=O)(=O)Nc4ncns4)cc3Cl)C2)c1 [Example 99, (S)-3-chloro-4-(1-(3,5-dimethylbenzyl)pyrrolidin-3-yloxy)-N-(1,2,4-thiadiazol-5-yl)benzenesulfonamide 2,2,2-trifluoroacetate] | 1.41 | – | > 30 | > 30 | 4.44
14 | Cc1c(O[C@@]2(C)CCN(Cc3ccccc3)C2)cc(F)c(S(=O)(=O)Nc2cscn2)c1F [Example 158, (S)-4-((1-benzyl-3-methylpyrrolidin-3-yl)oxy)-2,6-difluoro-3-methyl-N-(thiazol-4-yl)benzenesulfonamide formate] | 0.009 | – | 24.2 | > 30 | 0.008
15 | Cc1cccc(CN2CC[C@H](N(C)c3cc(F)c(S(=O)(=O)Nc4cscn4)c(F)c3Cl)C2)n1 [Example 267, (S)-3-chloro-2,6-difluoro-4-(methyl(1-((6-methylpyridin-2-yl)methyl)pyrrolidin-3-yl)amino)-N-(thiazol-4-yl)benzenesulfonamide] | 0.182 | – | > 30 | > 30 | 0.066
16 | Cc1cc(S(=O)(=O)Nc2ccsn2)c(F)cc1N(C)[C@H]1CCN(Cc2ccccc2)C1 [Example 277, (S)-4-((1-benzylpyrrolidin-3-yl)(methyl)amino)-2-fluoro-N-(isothiazol-3-yl)-5-methylbenzenesulfonamide 2,2,2-trifluoroacetate] | 0.153 | – | 24.9 | > 30 | 0.027
17 | Cc1c(OC2CCN([C@H](C)c3ccccc3)CC2)cc(F)c(S(=O)(=O)Nc2cscn2)c1F [Example 282, (R)-2,6-difluoro-3-methyl-4-((1-(1-phenylethyl)piperidin-4-yl)oxy)-N-(thiazol-4-yl)benzenesulfonamide 2,2,2-trifluoroacetate] | 0.005 | – | 17.3 | 23.9 | 0.005
18 | C[C@H](c1ccccc1)N1CCC(Oc2cc(F)c(S(=O)(=O)Nc3cscn3)c(F)c2)CC1 [Example 291, (R)-2,6-difluoro-4-((1-(1-phenylethyl)piperidin-4-yl)oxy)-N-(thiazol-4-yl)benzenesulfonamide 2,2,2-trifluoroacetate] | 0.578 | – | > 30 | > 30 | 0.447
19 | Cc1c(N(C)[C@H]2CCN(Cc3ccccc3)C2)cc(F)c(S(=O)(=O)Nc2ncns2)c1F [Example 295, (S)-4-((1-benzylpyrrolidin-3-yl)(methyl)amino)-2,6-difluoro-3-methyl-N-(1,2,4-thiadiazol-5-yl)benzenesulfonamide] | 0.009 | – | 17.1 | 25.9 | 0.001
